Measured values taken from PMC10449633 (Nature Chemical Biology, 2023).
Several values for one entry are separate records, joined by “and”; a condition that tells them apart may be missing. Equal entries are not always repeated.

Columns and labels:
[1] = tested on: mouse skin inflammation model; design: method as in PMID 26019221; conditions: at its maximum tolerated dose; cited from earlier work
Sec61 = target: T1, Sec61 (Homo sapiens, UniProt P61619); test: cell-based; type: cell-based
T1 construct: endogenous in cells
T1 sequence (P61619 whole entry): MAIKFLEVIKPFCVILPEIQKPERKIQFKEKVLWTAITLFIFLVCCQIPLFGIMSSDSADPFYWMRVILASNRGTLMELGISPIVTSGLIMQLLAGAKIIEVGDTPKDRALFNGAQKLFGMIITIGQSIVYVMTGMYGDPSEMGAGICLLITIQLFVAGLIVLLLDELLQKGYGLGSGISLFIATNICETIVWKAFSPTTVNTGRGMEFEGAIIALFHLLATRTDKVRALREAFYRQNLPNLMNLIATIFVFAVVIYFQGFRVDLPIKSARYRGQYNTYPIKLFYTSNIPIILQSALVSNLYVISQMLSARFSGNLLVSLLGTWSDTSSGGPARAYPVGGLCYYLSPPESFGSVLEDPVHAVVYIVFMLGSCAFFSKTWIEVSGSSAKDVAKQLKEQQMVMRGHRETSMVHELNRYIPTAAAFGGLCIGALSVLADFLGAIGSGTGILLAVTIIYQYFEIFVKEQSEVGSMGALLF
T1 sequence (P60059 whole entry, further chain): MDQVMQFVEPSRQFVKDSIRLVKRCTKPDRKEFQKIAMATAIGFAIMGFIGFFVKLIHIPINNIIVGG
T1 sequence (P60468 whole entry, further chain): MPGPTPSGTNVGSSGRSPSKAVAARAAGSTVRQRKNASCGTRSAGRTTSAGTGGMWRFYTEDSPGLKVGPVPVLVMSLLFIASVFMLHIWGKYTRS

Substance: mycolactone A/B
- efficacy in mouse skin inflammation model [1]: modest efficacy
- potency against VCAM-GLuc relative to pPL-GLuc (Sec61; HEK293T, 24 h): equipotent
- secreted luciferase activity (% of no-drug control) (Sec61; VCAM signal peptide, Drug nM (log10) 0.18303): 91.1752% and 96.3566% and 105.08% and 96.2111%
- secreted luciferase activity (% of no-drug control) (Sec61; VCAM signal peptide, Drug nM (log10) 0.660151): 60.5653% and 60.6911% and 72.2191% and 65.68%
- secreted luciferase activity (% of no-drug control) (Sec61; VCAM signal peptide, Drug nM (log10) 1.13727): 69.7373% and 62.7916% and 84.5753% and 63.8152%
- secreted luciferase activity (% of no-drug control) (Sec61; VCAM signal peptide, Drug nM (log10) 1.61439): 23.3051% and 17.9704% and 24.3586% and 17.2696%
- secreted luciferase activity (% of no-drug control) (Sec61; VCAM signal peptide, Drug nM (log10) 2.09151): 9.614% and 7.324% and 15.2923% and 7.158%
- secreted luciferase activity (% of no-drug control) (Sec61; VCAM signal peptide, Drug nM (log10) 2.56864): 5.834% and 4.881% and 8.3778% and 4.722%
- secreted luciferase activity (% of no-drug control) (Sec61; VCAM signal peptide, Drug nM (log10) 3.04576): 4.831% and 3.708% and 6.049% and 3.853%
- secreted luciferase activity (% of no-drug control) (Sec61; VCAM signal peptide, Drug nM (log10) 3.52288): 3.813% and 3.595% and 4.497% and 3.349%
- secreted luciferase activity (% of no-drug control) (Sec61; VCAM signal peptide, Drug nM (log10) 4): 4.399% and 3.701% and 4.702% and 3.31%
- secreted luciferase activity (% of no-drug control) (Sec61; VCAM signal peptide, Drug nM (log10) -0.29409): 91.3897% and 90.48% and 98.9457% and 92.5099%
- secreted luciferase activity (% of no-drug control) (Sec61; pPL signal peptide, Drug nM (log10) 0.18303): 96.941% and 113.105% and 106.161% and 90.9819%
- secreted luciferase activity (% of no-drug control) (Sec61; pPL signal peptide, Drug nM (log10) 0.660151): 87.4346% and 105.37% and 92.2325% and 88.4507%
- secreted luciferase activity (% of no-drug control) (Sec61; pPL signal peptide, Drug nM (log10) 1.13727): 90.1482% and 100.766% and 90.4471% and 85.7727%
- secreted luciferase activity (% of no-drug control) (Sec61; pPL signal peptide, Drug nM (log10) 1.61439): 34.1743% and 36.4459% and 25.7816% and 32.3021%
- secreted luciferase activity (% of no-drug control) (Sec61; pPL signal peptide, Drug nM (log10) 2.09151): 11.7024% and 15.7348% and 12.066% and 11.9677%
- secreted luciferase activity (% of no-drug control) (Sec61; pPL signal peptide, Drug nM (log10) 2.56864): 10.1212% and 10.0148% and 7.898% and 9.649%
- secreted luciferase activity (% of no-drug control) (Sec61; pPL signal peptide, Drug nM (log10) 3.04576): 5.549% and 7.948% and 6.334% and 6.2294%
- secreted luciferase activity (% of no-drug control) (Sec61; pPL signal peptide, Drug nM (log10) 3.52288): 4.849% and 7.368% and 5.461% and 6.2207%
- secreted luciferase activity (% of no-drug control) (Sec61; pPL signal peptide, Drug nM (log10) 4): 4.167% and 6.905% and 5.234% and 5.9772%
- secreted luciferase activity (% of no-drug control) (Sec61; pPL signal peptide, Drug nM (log10) -0.29409): 102.214% and 111.849% and 98.9284% and 92.0234%
